Results as given in ChEMBL document CHEMBL6127087 (Eur J Med Chem, 2024).
The source made the active and inactive calls. The rule behind the calls is not given here.

Columns and labels:
[1] = molecular target: P2Y purinoceptor 6 (Homo sapiens, UniProt Q15077); assay: Antagonist activity at human P2Y6R expressed in CHO cells assessed as inhibition of UDP sodium salt-induced Ca2+ level by FLIPR calcium 6 assay; type: functional, cell-based
[2] = molecular target: P2Y purinoceptor 2 (Homo sapiens) (UniProt P41231); assay: Antagonist activity at human P2Y2R stably expressed in HEK293 cells assessed as inhibition of UTP-induced IP3 accumulation preincubated with compound for 30 mins followed by UTP addition by ELISA; type: functional, cell-based
P2Y purinoceptor 2 (Homo sapiens), sequence (P41231 whole entry): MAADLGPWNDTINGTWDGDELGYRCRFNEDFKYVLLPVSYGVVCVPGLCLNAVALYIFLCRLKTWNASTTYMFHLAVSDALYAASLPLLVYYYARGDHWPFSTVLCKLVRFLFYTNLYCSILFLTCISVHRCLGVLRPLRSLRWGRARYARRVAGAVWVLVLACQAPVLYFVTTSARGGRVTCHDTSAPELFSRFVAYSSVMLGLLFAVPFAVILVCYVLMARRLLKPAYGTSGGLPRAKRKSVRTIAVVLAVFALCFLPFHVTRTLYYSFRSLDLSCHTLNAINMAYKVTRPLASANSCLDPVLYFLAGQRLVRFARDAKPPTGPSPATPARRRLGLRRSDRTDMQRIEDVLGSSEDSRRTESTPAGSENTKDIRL

[3] = molecular target: P2Y purinoceptor 12 (Homo sapiens, UniProt Q9H244); assay: Antagonist activity at human P2Y12R stably expressed in HEK293 cells assessed as inhibition of MeSADP-induced cAMP accumulation preincubated with compound for 30 mins followed by MeSADP addition by cAMP-GloTM assay; type: functional, cell-based
P2Y purinoceptor 12, sequence (Q9H244 whole entry): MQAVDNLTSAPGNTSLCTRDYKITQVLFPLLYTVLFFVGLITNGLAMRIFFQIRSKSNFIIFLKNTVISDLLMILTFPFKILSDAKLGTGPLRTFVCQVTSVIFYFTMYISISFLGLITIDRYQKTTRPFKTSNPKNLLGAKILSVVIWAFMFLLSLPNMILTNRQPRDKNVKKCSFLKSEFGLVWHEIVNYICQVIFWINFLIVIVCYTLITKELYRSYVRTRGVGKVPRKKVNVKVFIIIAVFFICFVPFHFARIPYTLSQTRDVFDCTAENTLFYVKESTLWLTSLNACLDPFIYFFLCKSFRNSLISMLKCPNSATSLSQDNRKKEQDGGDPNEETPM

[4] = tested on: HUVEC; assay: Cytotoxicity against HUVEC cells assessed as reduction in cell survival at >10 uM incubated for 12 to 24 hrs by CCK8 assay; type: toxicity, cell-based; details: human, time 12-24 hrs
[5] = molecular target: Cytochrome P450 2C19 (Homo sapiens, UniProt P33261); assay: Inhibition of CYP2C19 in human liver microsomes using s-mephenytoin as substrate preincubated for 10 mins followed by NADPH addition and measured after 10 mins by LC-MS/MS analysis; type: ADME, Microsome
Cytochrome P450 2C19, sequence (P33261 whole entry): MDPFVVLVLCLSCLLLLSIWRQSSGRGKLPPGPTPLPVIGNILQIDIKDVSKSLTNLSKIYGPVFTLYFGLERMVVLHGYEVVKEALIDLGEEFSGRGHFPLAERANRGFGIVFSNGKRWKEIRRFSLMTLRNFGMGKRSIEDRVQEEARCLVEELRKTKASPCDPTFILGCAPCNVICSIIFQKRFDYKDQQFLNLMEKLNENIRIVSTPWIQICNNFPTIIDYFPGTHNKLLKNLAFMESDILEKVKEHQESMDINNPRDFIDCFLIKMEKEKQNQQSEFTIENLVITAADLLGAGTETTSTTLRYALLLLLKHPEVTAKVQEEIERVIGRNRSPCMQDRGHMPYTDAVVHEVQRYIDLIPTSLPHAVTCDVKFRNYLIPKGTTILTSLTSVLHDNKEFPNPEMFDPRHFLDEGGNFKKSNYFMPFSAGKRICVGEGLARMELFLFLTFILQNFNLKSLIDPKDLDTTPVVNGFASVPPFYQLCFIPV

[6] = molecular target: Cytochrome P450 2D6 (Homo sapiens, UniProt P10635); assay: Inhibition of CYP2D6 in human liver microsomes using […] as substrate preincubated for 10 mins followed by NADPH addition and measured after 10 mins by LC-MS/MS analysis; type: ADME, Microsome
Cytochrome P450 2D6, sequence (P10635 whole entry): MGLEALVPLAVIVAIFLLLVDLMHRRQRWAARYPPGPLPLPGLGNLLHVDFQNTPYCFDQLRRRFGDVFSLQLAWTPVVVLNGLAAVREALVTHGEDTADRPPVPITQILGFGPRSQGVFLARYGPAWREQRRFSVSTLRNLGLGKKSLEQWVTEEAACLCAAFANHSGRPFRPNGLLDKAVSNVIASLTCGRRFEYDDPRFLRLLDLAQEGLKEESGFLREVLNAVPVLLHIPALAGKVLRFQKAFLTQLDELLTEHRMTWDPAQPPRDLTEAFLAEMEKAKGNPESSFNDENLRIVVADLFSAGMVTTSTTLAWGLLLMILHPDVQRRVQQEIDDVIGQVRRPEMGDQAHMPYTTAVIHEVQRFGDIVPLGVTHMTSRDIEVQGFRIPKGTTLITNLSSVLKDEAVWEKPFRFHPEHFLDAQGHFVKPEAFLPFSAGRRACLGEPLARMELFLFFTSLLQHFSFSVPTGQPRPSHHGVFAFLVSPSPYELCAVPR

[7] = Stability in simulated intestinal fluid assessed as half-life; type: physicochemical
[8] = Stability in simulated gastric fluid assessed as half-life; type: physicochemical
[9] = Tmax in male Sprague-Dawley rat at 10 mg/kg, iv measured after 24 hrs by LC-MS/MS analysis; type: ADME, organism-based; details: male, Sprague-Dawley, in vivo, read-out: Tmax (converted)
[10] = AUC (0 to 24 hrs) in male Sprague-Dawley rat at 10 mg/kg, iv measured after 24 hrs by LC-MS/MS analysis; type: ADME, organism-based; details: in vivo
[11] = Tmax in male Sprague-Dawley rat at 20 mg/kg, po measured after 24 hrs by LC-MS/MS analysis; type: ADME, organism-based; details: male, Sprague-Dawley, in vivo, read-out: Tmax (converted)
[12] = AUC (0 to 24 hrs) in male Sprague-Dawley rat at 20 mg/kg, po measured after 24 hrs by LC-MS/MS analysis; type: ADME, organism-based; details: male, Sprague-Dawley, in vivo
[13] = Clearance in male Sprague-Dawley rat at 20 mg/kg, po measured after 24 hrs by LC-MS/MS analysis; type: ADME, organism-based; details: in vivo
[14] = Oral bioavailability in male Sprague-Dawley rat at 20 mg/kg measured after 24 hrs by LC-MS/MS analysis; type: ADME, organism-based; details: male, Sprague-Dawley, in vivo
[15] = tested on: Mus musculus; assay: Anti-inflammatory activity in LPS-induced male C57BL/6 mouse model of acute […] injury assessed as reduction in TNF-alpha level in BALF at 2 to 6 mg/kg, IG preadministered with compound for 7 days followed by LPS administration and measured after 24 hrs by ELISA; type: functional, organism-based; details: dose 2-6 mg/kg, time 8.0 day
[16] = tested on: Mus musculus; assay: Anti-inflammatory activity in LPS-induced male C57BL/6 mouse model of acute […] injury assessed as reduction in infiltration of immune cells by measuring decrease in lymphocytes count at 2 to 6 mg/kg, IG preadministered with compound for 7 days followed by LPS administration and measured after 24 hrs; type: functional, organism-based; details: dose 2-6 mg/kg, time 8.0 day
[17] = tested on: Mus musculus; assay: Anti-inflammatory activity in LPS-induced male C57BL/6 mouse model of acute […] injury assessed as reduction in MPO level in BALF at 2 to 6 mg/kg, IG preadministered with compound for 7 days followed by LPS administration and measured after 24 hrs by ELISA; type: functional, organism-based; details: dose 2-6 mg/kg, time 8.0 day
[18] = tested on: Mus musculus; assay: Anti-inflammatory activity in LPS-induced male C57BL/6 mouse model of acute […] injury assessed as reduction in neutrophil elastase level in BALF at 2 to 6 mg/kg, IG preadministered with compound for 7 days followed by LPS administration and measured after 24 hrs by ELISA; type: functional, organism-based; details: dose 2-6 mg/kg, time 8.0 day
[19] = tested on: Mus musculus; assay: Anti-inflammatory activity in LPS-induced male C57BL/6 mouse model of acute […] injury assessed as reduction in alveolar septa thickening in lung at 2 to 6 mg/kg, IG preadministered with compound for 7 days followed by LPS administration and measured after 24 hrs by H and E staining based histopathological analysis; type: functional, organism-based; details: dose 2-6 mg/kg, time 8.0 day
[20] = tested on: Mus musculus; assay: Anti-inflammatory activity in LPS-induced male C57BL/6 mouse model of acute […] injury assessed as reduction in tissue destruction in lung at 2 to 6 mg/kg, IG preadministered with compound for 7 days followed by LPS administration and measured after 24 hrs by H and E staining based histopathological analysis; type: functional, organism-based; details: dose 2-6 mg/kg, time 8.0 day
[21] = tested on: Mus musculus; assay: Anti-inflammatory activity in LPS-induced male C57BL/6 mouse model of acute […] injury assessed as reduction in interstitial edema in lung at 2 to 6 mg/kg, IG preadministered with compound for 7 days followed by LPS administration and measured after 24 hrs by H and E staining based histopathological analysis; type: functional, organism-based; details: dose 2-6 mg/kg, time 8.0 day
[22] = tested on: Mus musculus; assay: Anti-inflammatory activity in LPS-induced male C57BL/6 mouse model of acute […] injury assessed as reduction in inflammatory infiltration in lung at 2 to 6 mg/kg, IG preadministered with compound for 7 days followed by LPS administration and measured after 24 hrs by H and E staining based histopathological analysis; type: functional, organism-based; details: dose 2-6 mg/kg, time 8.0 day
[23] = tested on: Mus musculus; assay: Anti-inflammatory activity in LPS-induced male C57BL/6 mouse model of acute […] injury assessed as intact appearance of alveolar structure in lung at 2 to 6 mg/kg, IG preadministered with compound for 7 days followed by LPS administration and measured after 24 hrs by H and E staining based histopathological analysis; type: functional, organism-based; details: dose 2-6 mg/kg, time 8.0 day
[24] = tested on: Mus musculus; assay: Anti-inflammatory activity in LPS-induced male C57BL/6 mouse model of acute […] injury assessed as reduction in hyperemia of pulmonary alveolar septa in lung at 2 to 6 mg/kg, IG preadministered with compound for 7 days followed by LPS administration and measured after 24 hrs by H and E staining based histopathological analysis; type: functional, organism-based; details: dose 2-6 mg/kg, time 8.0 day
[25] = tested on: Mus musculus; assay: Anti-inflammatory activity in LPS-induced male C57BL/6 mouse model of acute […] injury assessed as reduction in lung permeability by measuring tight junction associated proteins at 2 to 6 mg/kg, IG preadministered with compound for 7 days followed by LPS administration and measured after 24 hrs by immunofluorescence analysis; type: functional, organism-based; details: dose 2-6 mg/kg, time 8.0 day
[26] = tested on: Mus musculus; assay: Anti-inflammatory activity in LPS-induced male C57BL/6 mouse model of acute […] injury assessed as reduction in infiltration of neutrophils into lung at 2 to 6 mg/kg, IG preadministered with compound for 7 days followed by LPS administration and measured after 24 hrs by immunofluorescence analysis; type: functional, organism-based; details: dose 2-6 mg/kg, time 8.0 day
[27] = tested on: Mus musculus; assay: Anti-inflammatory activity in LPS-induced male C57BL/6 mouse model of acute […] injury assessed as inhibition of CXCL1 release at 2 to 6 mg/kg, IG preadministered with compound for 7 days followed by LPS administration and measured after 24 hrs by ELISA; type: functional, organism-based; details: dose 2-6 mg/kg, time 8.0 day
[28] = tested on: Mus musculus; assay: In vivo inhibition of NLRP3 activation in LPS-induced male C57BL/6 mouse model of acute […] injury assessed as reduction in NLRP3 level in lung at 2 to 6 mg/kg, IG preadministered with compound for 7 days followed by LPS administration and measured after 24 hrs by Western blot analysis; type: functional, organism-based; details: dose 2-6 mg/kg, time 8.0 day

P2Y purinoceptor 6, sequence (Q15077 whole entry): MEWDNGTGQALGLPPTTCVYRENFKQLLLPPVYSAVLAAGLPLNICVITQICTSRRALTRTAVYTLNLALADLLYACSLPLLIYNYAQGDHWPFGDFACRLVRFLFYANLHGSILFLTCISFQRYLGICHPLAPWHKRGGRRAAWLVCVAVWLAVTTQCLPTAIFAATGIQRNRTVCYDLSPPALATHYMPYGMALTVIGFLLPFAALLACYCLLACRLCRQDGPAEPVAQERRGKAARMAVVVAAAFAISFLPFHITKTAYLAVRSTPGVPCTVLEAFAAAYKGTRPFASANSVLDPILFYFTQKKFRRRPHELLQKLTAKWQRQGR

O=C(O)CCC(=O)N1N=C(c2ccc[nH]2)CC1c1cnc2ccccc2c1 (stereo not drawn)
IC50 [1]: 0.0196 µM
Activity [2]: inactive
Activity [3]: inactive
Activity [4]: Non-Toxic
IC50 [5]: > 50 µM
IC50 [6]: > 50 µM
half-life [7]: > 300 min
half-life [8]: > 50 h
Tmax [9]: 28 min
AUC [10]: 1956 ng·h/mL
Tmax [11]: 46 min
AUC(0-t) at 24 h [12]: 2980 ng·h/mL
CL/F [13]: 28.3 mL/min/kg
bioavailability [14]: 43%
Activity [15]: Active
Activity [16]: Active
Activity [17]: Active
Activity [18]: Active
Activity [19]: Active
Activity [20]: Active
Activity [21]: Active
Activity [22]: Active
Activity [23]: Active
Activity [24]: Active
Activity [25]: Active
Activity [26]: Active
Activity [27]: Active
inhibition [28]: Active
